Structures are written as SMILES.

T1 sequence (Q07343 330-659 limits assumed, species assumed): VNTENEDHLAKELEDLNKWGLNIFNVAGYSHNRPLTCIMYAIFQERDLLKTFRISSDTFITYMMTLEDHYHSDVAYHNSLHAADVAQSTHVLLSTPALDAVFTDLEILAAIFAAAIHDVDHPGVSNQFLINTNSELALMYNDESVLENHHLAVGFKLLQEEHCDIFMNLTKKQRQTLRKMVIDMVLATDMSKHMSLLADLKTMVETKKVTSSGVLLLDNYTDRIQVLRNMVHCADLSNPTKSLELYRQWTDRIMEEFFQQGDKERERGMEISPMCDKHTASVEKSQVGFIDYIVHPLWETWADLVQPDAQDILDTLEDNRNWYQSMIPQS

This test concerns the target T1, PDE4B (Homo sapiens, UniProt Q07343).
T1 construct: hexa-histidine (His6) (N); made in house
Nature of the test: PDE4 IMAP Assay. Conditions: catalytic domain of PDE4B, fluorescence polarization. The format is biochemical. The text has this:
Compounds may be screened for functional potency in in vitro biochemical assays for their ability to inhibit the activity of phosphodiesterase (PDE) enzymes. A commercial PDE assay, Molecular Device's PDE IMAP assay, was modified and utilized to measure the inhibitory activity of compounds on PDE isoforms. The IMAP technology is based on the high affinity binding of phosphate by immobilized metal (MIII) coordination complexes on nanoparticles. This IMAP “binding reagent” complexes with phosphate groups on the nucleotide monophosphates generated in the reaction. Such binding causes a change in the rate of the molecular motion of the nucleotide, and results in an increase in the fluorescence polarization value observed for the fluorescent label attached to the substrate. PDE inhibitors prevent the generation of nucleotide monophosphates and the subsequent increase in polarization value observed for the fluorescent label attached to the substrate. The catalytic domain of PDE4B was fused to an amino-terminus hex-histadine affinity tag and purified. PDE4B enzyme was incubated with compounds for 10 minutes. Fluorescently labeled cyclic AMP substrates were then added to the PDE enzyme mix and incubated for 2 hours at room temperature. IMAP binding reagent was then added to the enzyme mix, incubated for 10-30 minutes and fluorescent polarization of the fluorescently labeled substrate was read either with the Perkin Elmer Viewlux or Molecular Devices Acquest or Analyst. Roflumilast and Rolipram are the positive controls used in the assay.
In general terms: Polarisation of emitted light reports the rotation of a fluorescent probe.
For the compound `COc1ccc(C2=NN(C(=O)CCC(=O)O)C(c3cccc(OC)c3OC)C2)cc1OC` (stereo not drawn) [Example 69, 4-(5-(2,3-dimethoxyphenyl)-3-(3,4-dimethoxyphenyl)-4,5-dihydro-1H-pyrazol-1-yl)-4-oxobutanoic acid], the inhibition (usually the drop in the measured response relative to a control, in per cent) at 10 µM is < 50%.

For `COc1ccc(C2=NN(C(=O)CCC(=O)O)C(c3ccc(Cl)cc3)C2)cc1OC` (stereo not drawn) [Example 70, 4-(5-(4-chlorophenyl)-3-(3,4-dimethoxyphenyl)-4,5-dihydro-1H-pyrazol-1-yl)-4-oxobutanoic acid], the inhibition at 10 µM is < 50%. Regarding `COc1ccc(C2=NN(C(=O)CCC(=O)O)C(c3ccc(C)cc3)C2)cc1OC` (stereo not drawn) [Example 71, 4-(3-(3,4-dimethoxyphenyl)-5-p-tolyl-4,5-dihydro-1H-pyrazol-1-yl)-4-oxobutanoic acid], the inhibition at 10 µM is < 50%. Then `COc1ccc(C2=NN(C(=O)CCC(=O)O)C(c3ccc(F)cc3)C2)cc1OC` (stereo not drawn) [Example 72, 4-(3-(3,4-dimethoxyphenyl)-5-(4-fluorophenyl)-4,5-dihydro-1H-pyrazol-1-yl)-4-oxobutanoic acid], with < 50%; and `COc1ccc(C2=NN(C(C)=O)C(c3cn(-c4ccccc4)nc3-c3ccccc3)C2)cc1OC` (stereo not drawn) [Example 73, 1-(3-(3,4-dimethoxyphenyl)-5-(1,3-diphenyl-1H-pyrazol-4-yl)-4,5-dihydro-1H-pyrazol-1-yl)ethanone], with < 50%. As to `COc1ccc(C2=NN(C(C)=O)C(c3cc4cc(C)ccc4nc3Cl)C2)cc1OC` (stereo not drawn) [Example 74, 1-(5-(2-chloro-6-methylquinolin-3-yl)-3-(3,4-dimethoxyphenyl)-4,5-dihydro-1H-pyrazol-1-yl)ethanone], the inhibition at 10 µM was < 50%. For `COc1ccc(C2=NN(C(C)=O)C(c3cc4ccc(C)cc4nc3Cl)C2)cc1OC` (stereo not drawn) [Example 75, 1-(5-(2-chloro-7-methylquinolin-3-yl)-3-(3,4-dimethoxyphenyl)-4,5-dihydro-1H-pyrazol-1-yl)ethanone], the inhibition at 10 µM was < 50%. As for `COc1ccc(C2=NN(C(C)=O)C(c3cc4cccc(C)c4nc3Cl)C2)cc1OC` (stereo not drawn) [Example 76, 1-(5-(2-chloro-8-methylquinolin-3-yl)-3-(3,4-dimethoxyphenyl)-4,5-dihydro-1H-pyrazol-1-yl)ethanone], the inhibition at 10 µM is < 50%. With `COc1ccc(C2=NN(C(=O)c3cc(OC)c(OC)c(OC)c3)C(c3ccc(OC)c(OC)c3)C2)cc1OC` (stereo not drawn) [Example 78, (3,5-bis(3,4-dimethoxyphenyl)-4,5-dihydro-1H-pyrazol-1-yl)(3,4,5-trimethoxyphenyl)methanone] the figure was < 50%.

`COc1ccc(C2=NN(C(=O)c3cc(OC)c(OC)c(OC)c3)C(c3ccccc3F)C2)cc1OC` (stereo not drawn) [Example 79, (3-(3,4-dimethoxyphenyl)-5-(2-fluorophenyl)-4,5-dihydro-1H-pyrazol-1-yl)(3,4,5-trimethoxyphenyl)methanone]: the inhibition at 10 µM is ≥ 50%.

`COc1ccc(C2=NN(C(=O)c3cc(OC)c(OC)c(OC)c3)C(c3ccccc3OC)C2)cc1OC` (stereo not drawn) [Example 80, (3-(3,4-dimethoxyphenyl)-5-(2-methoxyphenyl)-4,5-dihydro-1H-pyrazol-1-yl)(3,4,5-trimethoxyphenyl)methanone]: the inhibition at 10 µM was < 50%.

For the compound `COc1ccc(C2=NN(C(=O)c3ccc(Br)o3)C(c3ccc(N(C)C)cc3)C2)cc1OC` (stereo not drawn) [Example 81, (5-bromofuran-2-yl)(3-(3,4-dimethoxyphenyl)-5-(4-(dimethylamino)phenyl)-4,5-dihydro-1H-pyrazol-1-yl)methanone], the inhibition at 10 µM was < 50%. Then `COc1ccc(C2=NN(C(=O)c3ccc(Br)o3)C(c3cccc(OC)c3OC)C2)cc1OC` (stereo not drawn) [Example 84, (5-bromofuran-2-yl)(5-(2,3-dimethoxyphenyl)-3-(3,4-dimethoxyphenyl)-4,5-dihydro-1H-pyrazol-1-yl)methanone], with < 50%; and `COc1ccc(C2=NN(S(=O)(=O)c3ccc(C)cc3)C(c3ccc(N(C)C)cc3)C2)cc1OC` (stereo not drawn) [Example 85, 4-(3-(3,4-dimethoxyphenyl)-1-tosyl-4,5-dihydro-1H-pyrazol-5-yl)-N,N-dimethylaniline], with < 50%; and `COc1ccc(C2=NN(S(=O)(=O)c3ccccc3)C(c3ccc(OC)c(OC)c3)C2)cc1OC` (stereo not drawn) [Example 86, 3,5-bis(3,4-dimethoxyphenyl)-1-(phenylsulfonyl)-4,5-dihydro-1H-pyrazole], with ≥ 50%. With `COc1ccc(C2=NN(S(=O)(=O)c3ccc(C)cc3)C(c3ccc(OC)c(OC)c3)C2)cc1OC` (stereo not drawn) [Example 87, 3,5-bis(3,4-dimethoxyphenyl)-1-tosyl-4,5-dihydro-1H-pyrazole] the figure was < 50%; with `COc1ccc(OC)c(C2CC(c3ccc(OC)c(OC)c3)=NN2S(=O)(=O)c2ccccc2)c1` (stereo not drawn) [Example 88, 5-(2,5-dimethoxyphenyl)-3-(3,4-dimethoxyphenyl)-1-(phenylsulfonyl)-4,5-dihydro-1H-pyrazole], < 50%. Then `COc1ccc(OC)c(C2CC(c3ccc(OC)c(OC)c3)=NN2S(=O)(=O)c2ccc(C)cc2)c1` (stereo not drawn) [Example 89, 5-(2,5-dimethoxyphenyl)-3-(3,4-dimethoxyphenyl)-1-tosyl-4,5-dihydro-1H-pyrazole], with < 50%; and `COc1ccc(C2=NN(S(=O)(=O)c3ccccc3)C(c3cccc(OC)c3OC)C2)cc1OC` (stereo not drawn) [Example 90, 5-(2,3-dimethoxyphenyl)-3-(3,4-dimethoxyphenyl)-1-(phenylsulfonyl)-4,5-dihydro-1H-pyrazole], with < 50%; and `COc1ccc(C2=NN(S(=O)(=O)c3ccc(C)cc3)C(c3cccc(OC)c3OC)C2)cc1OC` (stereo not drawn) [Example 91, 5-(2,3-dimethoxyphenyl)-3-(3,4-dimethoxyphenyl)-1-tosyl-4,5-dihydro-1H-pyrazole], with < 50%. Turning to `COc1ccc(C2CC(c3ccc(OC)c(OC)c3)=NN2S(=O)(=O)c2ccc(C)cc2)cc1` (stereo not drawn) [Example 92, 3-(3,4-dimethoxyphenyl)-5-(4-methoxyphenyl)-1-tosyl-4,5-dihydro-1H-pyrazole], the inhibition at 10 µM is < 50%. `COc1ccc(C2=NN(S(=O)(=O)c3ccc(C)cc3)C(c3ccccc3OC)C2)cc1OC` (stereo not drawn) [Example 93, 3-(3,4-dimethoxyphenyl)-5-(2-methoxyphenyl)-1-tosyl-4,5-dihydro-1H-pyrazole]: the inhibition at 10 µM was < 50%.

Take `COc1ccc(C2=NN(C(=O)CCCC(=O)O)C(c3cccc(OC)c3OC)C2)cc1OC` (stereo not drawn) [Example 94, 5-(5-(2,3-dimethoxyphenyl)-3-(3,4-dimethoxyphenyl)-4,5-dihydro-1H-pyrazol-1-yl)-5-oxopentanoic acid]: the inhibition at 10 µM was < 50%.

`COc1ccc(C2=NN(C(=O)CCCC(=O)O)C(c3ccc(Cl)cc3)C2)cc1OC` (stereo not drawn) [Example 95, 5-(5-(4-chlorophenyl)-3-(3,4-dimethoxyphenyl)-4,5-dihydro-1H-pyrazol-1-yl)-5-oxopentanoic acid]: the inhibition at 10 µM was < 50%.

`COc1ccc(C2=NN(C(=O)CCCC(=O)O)C(c3ccc(C)cc3)C2)cc1OC` (stereo not drawn) [Example 96, 5-(3-(3,4-dimethoxyphenyl)-5-p-tolyl-4,5-dihydro-1H-pyrazol-1-yl)-5-oxopentanoic acid]: the inhibition at 10 µM was < 50%. With `COc1ccc(C2CC(c3ccc(OC)c(OC)c3)=NN2C(=O)CCC(=O)O)cc1` (stereo not drawn) [Example 97, 4-(3-(3,4-dimethoxyphenyl)-5-(4-methoxyphenyl)-4,5-dihydro-1H-pyrazol-1-yl)-4-oxobutanoic acid] the figure was < 50%; with `COc1ccc(C2=NN(C(=O)CCC(=O)O)C(c3ccccc3OC)C2)cc1OC` (stereo not drawn) [Example 98, 4-(3-(3,4-dimethoxyphenyl)-5-(2-methoxyphenyl)-4,5-dihydro-1H-pyrazol-1-yl)-4-oxobutanoic acid], < 50%. Regarding `COc1ccc(C2=NN(C(=O)CCC(=O)O)C(c3ccccc3)C2)cc1OC` (stereo not drawn) [Example 99, 4-(3-(3,4-dimethoxyphenyl)-5-phenyl-4,5-dihydro-1H-pyrazol-1-yl)-4-oxobutanoic acid], the inhibition at 10 µM is < 50%. With `COc1ccc(C2=NN(C(C)=O)C(c3ccc(OC)c(OC)c3)C2)cc1OC` (stereo not drawn) [Example 100, 1-(3,5-bis(3,4-dimethoxyphenyl)-4,5-dihydro-1H-pyrazol-1-yl)ethanone] the figure was < 50%; with `COc1ccc(C2=NN(C(C)=O)C(c3cccc(OC)c3OC)C2)cc1OC` (stereo not drawn) [Example 101, 1-(5-(2,3-dimethoxyphenyl)-3-(3,4-dimethoxyphenyl)-4,5-dihydro-1H-pyrazol-1-yl)ethanone], < 50%. Regarding `COc1ccc(C2=NN(C(C)=O)C(c3ccc(F)cc3)C2)cc1OC` (stereo not drawn) [Example 102, 1-(3-(3,4-dimethoxyphenyl)-5-(4-fluorophenyl)-4,5-dihydro-1H-pyrazol-1-yl)ethanone], the inhibition at 10 µM was ≥ 50%.

For `COc1ccc(C2CC(c3ccc(OC)c(OC)c3)=NN2C(C)=O)cc1` (stereo not drawn) [Example 103, 1-(3-(3,4-dimethoxyphenyl)-5-(4-methoxyphenyl)-4,5-dihydro-1H-pyrazol-1-yl)ethanone], the inhibition at 10 µM is < 50%. With `COc1ccc(C2=NN(C(C)=O)C(c3ccccc3F)C2)cc1OC` (stereo not drawn) [Example 104, 1-(3-(3,4-dimethoxyphenyl)-5-(2-fluorophenyl)-4,5-dihydro-1H-pyrazol-1-yl)ethanone] the figure was < 50%.

The values are drawn from patent publication US20100105729A1, “ARYL-SUBSTITUTED HETEROCYCLIC PDE4 INHIBITORS AS ANTI-INFLAMMATORY AGENTS” (KALYPSYS, INC., priority 2006, published 2010).
